Entries after “also recorded” stand apart in the source; their conditions may differ.
Key:
TNFα = TNFα ELISA of LPS-stimulated bone marrow-derived macrophages; type: cell-based, mouse; settings: BMDMs, 50 μM, LPS 100 ng/ml, 24 hours
Description: Multiple Sclerosis: Mechanisms and Immunotherapy. Neuron 97, 742-768 (2018)]. It was tested whether the sugar analogs could affect the activity of macrophages, using bone marrow-derived macrophages (BMDMs) stimulated with lipopolysaccharide (LPS, 100 ng/ml). The sugar analogs were added at 50 μM prior to LPS, and the conditioned medium was collected after 24 hours and assayed for levels of the secreted cytokine TNFα. […] Testing Toxicity of Sugar Analogs
Femurs were carefully removed from euthanized female C57BI/6 mice, and marrow was flushed into a culture plate with cold complete bone marrow growth medium (DMEM, 10% fetal bovine serum, and the supplements 1% penicillin/streptomycin, 1% glutamine, 1% non-essential amino acids, and 10% supernatant from L929 cell-line enriched in macrophage-colony stimulating factor). Cells were spun at 1100 rpm for 10 minutes, resuspended in fresh growth medium and plated at 10×10^6 cells/ml in a 10 cm culture dish. Cells were grown in DMEM with supplements and L929 supernatant for 5 days, then half the medium was replaced with fresh growth medium. On day 7 growth medium was replaced with DMEM with 10% FBS and supplements. Cells were used on day 8, and experiments were conducted in DMEM with 1% FBS and supplements unless otherwise specified.
BMDM were plated at 25,000 cells in 96-well plates in DMEM+L929 media. After 24 hours media was changed to DMEM+1% FBS. One hour later, cells were treated with […] compounds or PBS. After 1 hour LPS (final concentration 100 ng/ml) was added. Following 24 hours, conditioned media was harvested for TNFα ELISA (Thermo Scientific), which was performed according to manufacturer's instructions.

[1] = test system: heparan sulfate proteoglycans (HSPGs) side chains; assay: Western blot of heparan sulfate GAGs (10E4) produced by astrocytes; type: cell-based, mouse
Description: Compounds that were able to reduce chondroitin GAGs were also investigated for their ability to reduce heparan sulfate GAGs. […] D. & de Vries, H. E. Extensive extracellular matrix depositions in active multiple sclerosis lesions. Neurobiology of disease 24, 484-491 (2006); van Horssen, J., Bö, L., Vos, C. M., Virtanen, I. & de Vries, H. E. Basement membrane proteins in multiple sclerosis-associated inflammatory cuffs: potential role in influx and transport of leukocytes. Journal of neuropathology and experimental neurology 64, 722-729 (2005)] and have detrimental pro-inflammatory capabilities [Parish, C. R. The role of heparan sulphate in inflammation. Nature reviews. Immunology 6, 633-643 (2006)].
Astrocytes were plated in uncoated 6-well plates (3 replicate wells per treatment) at 1×10^6 cells/well in mixed glial media, and incubated at 5% CO2 and 37° C. Astrocytes were treated with compounds at 50 μM in AIM-V media for 48 hours. Media was pooled from 3 replicate wells in 15 ml 100K cutoff centricon tubes (EMD Millipore, #UFC905008), which were spun on an ultracentrifuge at 5000× g for 2 cycles of 10 minutes each. When harvested, the cell lysate was kept on ice for 5 minutes with 250 μL of RIPA buffer (ThermoFisher Scientific #89900) containing proteinase inhibitor, and then collected and centrifuged at 14000 g for 5 minutes. Total protein was quantified using a Bradford assay. Conditioned media that were to be probed for chondroitin 4-sulfate GAGs (Millipore, #MAB2030) were first digested with 0.2 U/ml chondroitinase ABC for overnight at 37° C. to remove chondroitin sulfate sidechains. Blots that were to be probed with CSA (2H6, Cosmo) or CS56 (Abcam #ab11570) were not exposed to chondroitinase ABC. Samples were heat denatured with NuPAGE® LDS Sample buffer at 70° C. for 10 minutes and then loaded into 3-8% tris-acetate pre-cast gels (ThermoFisher, #EA0478BOX). The gels were electrophoresed at a constant 150 V for 90 minutes and transferred to a […] polyvinylidene fluoride membrane at a constant 250 mA for 60 minutes. The membranes were blocked for one hour with 10% skim milk in Tris-buffered saline (TBS; 0.9% NaCl, 10 mM Tris-HCl, pH 7.5) containing 0.5% Tween 20 (TBS-T). Primary antibodies were added in 3% skim milk and incubated overnight at 4° C. The membranes were washed 5×5 minutes with TBS-T. HRP-conjugated secondary antibodies were incubated for 120 minutes. The membranes were washed again for 5×5 minutes with TBS-T. Membranes were developed using an ECL chemiluminescence kit (GE Lifesciences) and manually exposed to developing and fixative solutions. Band density was quantified using Gel Analysis on ImageJ. A rectangular shape measured the density of bands for each lane. […]

CD3+ T cells = assay: Annexin V/propidium iodide staining; type: cell-based; settings: for necrotic, apoptotic, dead or live cells (Annexin V/PI): isolated CD3+ T cells, 25 μM and 50 μM; for cell death on splenocytes: propidium iodide/annexin V staining or cell cycle analysis
Description: Cell-cycle flow cytometry with propidium iodide was used to corroborate the above results, and ensure the reduction in proliferation was not due to cell death. […] To further investigate whether the reduction of proliferation was due to cell death, Annexin V and propidium iodide staining were used to differentiate necrotic cells (propidium iodide+), apoptotic cells (annexin V+), dead cells (propidium iodide+ and annexin V+), and live cells (propidium iodide-annexin V−).
Cell cycle staining with propidium iodide (PI) and analysis by flow cytometry gives percentage of cells in apoptosis, G1, G2, and synthesis, and apoptosis. Following a membrane permeabilization, PI chelates to DNA and level of staining specifies the stage of the cell cycle (e.g., G2 phase will have twice the DNA and thus twice the PI signal as G1 phase, apoptotic cells contain less DNA than healthy cells and are identified by low PI staining). 1×10^6 splenocytes were used per sample, with four replicates per condition. Cells were collected into a tube with PBS and centrifuged (200 r.p.m. for 5 minutes). Pellet was resuspended in 500 μl PBS and 500 μl ice cold 100% ethanol was slowly added with gentle vortexing of sample. Cell suspension was stored at 4° C. for at least 2 hours (up to two weeks). Next, the suspension was centrifuged at 200 r.p.m. for 3 minutes, pellet was resuspended in PBS and suspension was centrifuged at 200 r.p.m for 10 minutes at 4° C. Pellet was resuspended in 350 μl of PI staining buffer (50 μg/ml propidium iodide, 0.1% TritonX100, 0.2 mg Dnase free Rnase A in PBS) and incubated for 30-45 minutes at room temperature. Suspension was transferred to a FACs tube and analyzed. Annexin V/Propidium iodide staining was detected using the Annexin V FITC apoptosis detection kit (BD Biosciences, #556547), which was performed according to manufacturer's instructions.

[2] = test system: CSPG production by astrocytes; settings: previously described (Keough et al. 2016); cited from earlier work
EAE mice = assay: Experimental autoimmune encephalomyelitis (EAE) clinical score; type: in vivo, mouse
[3] = 50 mg/kg intraperitoneal daily, day 7 to day 15

Row | Structure (SMILES) | TNFα production by LPS-stimulated macrophages (TNFα) | HSPG side chains (intact heparan sulfate GAGs, 10E4) [1] | necrotic, apoptotic, dead or live cells (Annexin V/PI) (CD3+ T cells) | cell death on splenocytes (CD3+ T cells) | production of CSPGs by astrocytes [2] | EAE clinical score (EAE mice; [3]) | EAE clinical score (EAE mice; 25 mg/kg daily from peak clinical severity (day 15)) | sum of scores (burden of disease) (EAE mice; 25 mg/kg intraperitoneal daily, day 7 to day 15) | EAE clinical score (EAE mice; 25 mg/kg intraperitoneal daily, day 7 to day 15 (pre-onset))
1 | CC(=O)NC1C(OC(C)=O)OC(COC(C)=O)[C@@H](F)C1OC(C)=O (stereo partly shown) [Compound 3, reference compound] | did not alter cytokine level of activated macrophages | slight reduction in HSPG side chains | no evidence of causing non-specific cell apoptosis or necrosis; also recorded: did not display notable changes in their proportion of necrotic, apoptotic, dead, or live cells | did not show detectable cell death | reduced production of CSPGs by astrocytes | – | – | – | –
2 | CC(=O)NC1C(O)OC(COC(C)=O)[C@@H](F)[C@@H]1OC(C)=O (mixture of isomers) [Compound 10] | enhanced TNFα levels | – | – | did not show detectable cell death | – | did not reduce EAE clinical score; also recorded: no significant improvement in EAE clinical score | – | – | –
3 | CCCC(=O)OC[C@H]1OC(O)[C@H](NC(C)=O)[C@@H](OC(=O)CCC)[C@@H]1F (stereo partly drawn) [Compound 12, 2-Acetamido-3,6-di-O-butanoyl-2,4-dideoxy-4-fluoro-α/β-3-D-glucopyranose] | – | slight reduction in HSPG side chains | – | – | – | – | – | – | –
4 | CC(=O)NC1C(OC(C)=O)OC(COC(C)=O)C(F)(F)[C@@H]1OC(C)=O (mixture of isomers) [Compound 16, 2-Acetamido-1,3,6-tri-O-acetyl-2,4-dideoxy-4,4-difluoro-α/β-D-xylo-hexopyranose] | did not alter cytokine level of activated macrophages | slight reduction in HSPG side chains | no evidence of causing non-specific cell apoptosis or necrosis; also recorded: did not display notable changes in their proportion of necrotic, apoptotic, dead, or live cells | did not show detectable cell death | – | pronounced reduction in EAE clinical severity beyond that seen for the mono-fluorinated Ac-4-F-GlcNAc | significantly reduced EAE clinical severity; also recorded: did not significantly improve disability until nine days after treatment | significantly reduced | significantly lower EAE clinical scores than the control group
5 | CCCC(=O)OC1OC(COC(C)=O)[C@@H](F)[C@H](OC(C)=O)C1NC(C)=O (mixture of isomers) [Compound 8, 2-Acetamido-3,6-di-O-acetyl-1-O-butanoyl-2,4-dideoxy-4-fluoro-α/β-D-glucopyranose] | – | slight reduction in HSPG side chains | – | did not show detectable cell death | – | – | – | – | –
